This is an account of results in patent publication US10537558B2 (Bantam Pharmaceutical, LLC, priority 2015, dated 2020).

Some results are limits rather than exact numbers.

In this experiment the test system is BJAB cells. Briefly: BJAB cell proliferation (Cell Titer Glo). It is filed as cell-based. The note with it: Homo sapiens, read-out: EC50. The method, boiled down: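 BJAB cells exposed to serially diluted compounds (0.1% DMSO final) for about 72 h at 37 °C. Proliferation read by Cell Titer Glo luminescence as percent of untreated controls; EC50 from non-linear regression of dose-response data.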
(In general: Cellular ATP, detected with luciferase, serves as a proxy for viable cell number.)

For orientation: EC50 means the concentration that produces a half-maximal response. With `Cc1nn(-c2nc(-c3ccc(C(F)(F)F)cc3)c(SC(C)C)s2)c(C(=O)O)c1-c1cccc(F)c1` [Compound 197, 4-(3-fluorophenyl)-1-(5-(isopropylthio)-4-(4-(trifluoromethyl)phenyl)thiazol-2-yl)-3-methyl-1H-pyrazole-5-carboxylic Acid], the EC50 is < 1 µM. The same measure for `Cc1nn(-c2nc(-c3ccc(Cl)c(Cl)c3)c(SC(C)C)s2)c(C(=O)O)c1-c1ccc2cc[nH]c2c1` [Compound 107, 1-(4-(3,4-dichlorophenyl)-5-(isopropylthio)thiazol-2-yl)-4-(1H-indol-6-yl)-3-methyl-1H-pyrazole-5-carboxylic acid]: 25 to 50 µM.

For `Cc1nn(-c2nc(-c3ccc(Cl)c(Cl)c3)cs2)c(C(=O)O)c1Cc1ccccc1[N+](=O)[O-]` [Compound 2, 1-(4-(3,4-dichlorophenyl)thiazol-2-yl)-3-methyl-4-(2-nitrobenzyl)-1H-pyrazole-5-carboxylic acid], the EC50 was > 50 µM. The same measure for `COC(=O)c1c(Cc2ccccc2[N+](=O)[O-])c(C)nn1-c1nc(-c2ccc(Cl)c(Cl)c2)c(SC(C)C)s1` [Compound 5, methyl 1-(4-(3,4-dichlorophenyl)-5-(isopropylthio)thiazol-2-yl)-3-methyl-4-(2-nitrobenzyl)-1H-pyrazole-5-carboxylate]: > 80 µM. With `CC(C)Sc1sc(-n2cccn2)nc1-c1ccc(Cl)c(Cl)c1` [Compound 156, 4-(3,4-dichlorophenyl)-5-(isopropylthio)-2-(1H-pyrazol-1-yl)thiazole] the figure was > 25 µM. The same measure for `Cc1cc(Cl)cc(C)c1-c1nc(-n2nc(C)c(-c3cccc(F)c3)c2C(=O)O)sc1SC(C)C` [Compound 239, 1-(4-(4-chloro-2,6-dimethylphenyl)-5-(isopropylthio)thiazol-2-yl)-4-(3-fluorophenyl)-3-methyl-1H-pyrazole-5-carboxylic Acid]: 5 to 10 µM; for `CCSc1sc(-n2nc(C)c(Cc3ccccc3[N+](=O)[O-])c2C(=O)O)nc1-c1ccc(Cl)c(Cl)c1` [Compound 4, 1-(4-(3,4-dichlorophenyl)-5-(ethylthio)thiazol-2-yl)-3-methyl-4-(2-nitrobenzyl)-1H-pyrazole-5-carboxylic Acid]: 50 to 100 µM. `Cc1nn(-c2nc(-c3ccc(Cl)c(Cl)c3)c(SC(C)C)s2)c(C(=O)N(C)CCO)c1-c1cc(C(F)(F)F)cc(C(F)(F)F)c1` [Compound 76, 4-(3,5-bis(trifluoromethyl)phenyl)-1-(4-(3,4-dichlorophenyl)-5-(isopropylthio)thiazol-2-yl)-N-(2-hydroxyethyl)-N,3-dimethyl-1H-pyrazole-5-carboxamide]: the concentration giving a half-maximal response (EC50) was > 40 µM. In the case of `CCSc1sc(-n2nc(C)c(Cc3ccccc3[N+](=O)[O-])c2C(=O)OC)nc1-c1ccc(Cl)c(Cl)c1` [Compound 3, methyl 1-(4-(3,4-dichlorophenyl)-5-(ethylthio)thiazol-2-yl)-3-methyl-4-(2-nitrobenzyl)-1H-pyrazole-5-carboxylate], the EC50 was > 80 µM. Take `Cc1cc(Cl)ccc1-c1nc(-n2nc(C)c(-c3cccc(F)c3)c2C(=O)O)sc1SC(C)C` [Compound 216, 1-(4-(4-chloro-2-methylphenyl)-5-(isopropylthio)thiazol-2-yl)-4-(3-fluorophenyl)-3-methyl-1H-pyrazole-5-carboxylic acid]: the EC50 was < 1 µM. The same measure for `Cc1nn(-c2nc(-c3ccc(Cl)c(Cl)c3)c([S+]([O-])C(C)C)s2)c(C(=O)O)c1Cc1ccccc1[N+](=O)[O-]` (stereo not drawn) [Compound 54, 1-(4-(3,4-dichlorophenyl)-5-(isopropylsulfinyl)thiazol-2-yl)-3-methyl-4-(2-nitrobenzyl)-1H-pyrazole-5-carboxylic acid]: 25 to 50 µM. `Cc1nn(-c2nc(-c3ccc(Cl)c(Cl)c3)c(SC(C)C)s2)c(C(N)=O)c1-c1cc(C(F)(F)F)cc(C(F)(F)F)c1` [Compound 73, 4-(3,5-bis(trifluoromethyl)phenyl)-1-(4-(3,4-dichlorophenyl)-5-(isopropylthio)thiazol-2-yl)-3-methyl-1H-pyrazole-5-carboxamide]: the EC50 is > 40 µM. The same measure for `Cc1nn(-c2nc(C#Cc3ccc(C(F)(F)F)cc3)c(SC(C)C)s2)c(C(=O)O)c1-c1cccc(F)c1` [Compound 245, 4-(3-fluorophenyl)-1-(5-(isopropylthio)-4-((4-(trifluoromethyl)phenyl)ethynyl)thiazol-2-yl)-3-methyl-1H-pyrazole-5-carboxylic acid]: 10 to 25 µM. As for `COCCn1cc(-c2c(C)nn(-c3nc(-c4ccc(Cl)c(Cl)c4)c(SC(C)C)s3)c2C(=O)O)cn1` [Compound 126, 2-(4-(3,4-dichlorophenyl)-5-(isopropylthio)thiazol-2-yl)-2′-(2-methoxyethyl)-5-methyl-4,4′-bi(2H-pyrazole)-3-carboxylic acid], the EC50 was 10 to 25 µM. With `Cc1nn(-c2nc(-c3cccc4[nH]ccc34)c(SC(C)C)s2)c(C(=O)O)c1-c1cccc(F)c1` [Compound 168, 1-(4-(1H-indol-4-yl)-5-(isopropylthio)thiazol-2-yl)-4-(3-fluorophenyl)-3-methyl-1H-pyrazole-5-carboxylic acid] the figure was > 25 µM; with `Cc1nn(-c2nc(-c3ccc(Cl)c(Cl)c3)c(SC(C)C)s2)c(C(=O)O)c1-c1ccccc1` [Compound 18, 1-(4-(3,4-dichlorophenyl)-5-(isopropylthio)thiazol-2-yl)-3-methyl-4-phenyl-1H-pyrazole-5-carboxylic Acid], 1 to 5 µM; with `Cc1nn(-c2nc(-c3ccc(Cl)c(Cl)c3)c(SC(C)C)s2)c(C(=O)O)c1-c1c(CO)noc1C` [Compound 38, 1-(4-(3,4-dichlorophenyl)-5-(isopropylthio)thiazol-2-yl)-4-(3-(hydroxymethyl)-5-methylisoxazol-4-yl)-3-methyl-1H-pyrazole-5-carboxylic acid], > 50 µM.

Turning to `COc1cc(C)cc(-c2c(C)nn(-c3nc(-c4ccc(Cl)c(Cl)c4)c(SC(C)C)s3)c2C(=O)O)c1` [Compound 165, 1-(4-(3,4-dichlorophenyl)-5-(isopropylthio)thiazol-2-yl)-4-(3-methoxy-5-methylphenyl)-3-methyl-1H-pyrazole-5-carboxylic Acid], the EC50 was 1 to 5 µM. `Cc1nn(-c2nc(-c3ccc(C(=O)N(C)C)cc3)c(SC(C)C)s2)c(C(=O)O)c1-c1cccc(F)c1` [Compound 221, 1-(4-(4-(dimethylcarbamoyl)phenyl)-5-(isopropylthio)thiazol-2-yl)-4-(3-fluorophenyl)-3-methyl-1H-pyrazole-5-carboxylic acid]: the half-maximal effective concentration (EC50) was > 40 µM. The same measure for `Cc1noc(C)c1-c1c(C)nn(-c2nc(-c3ccc(Cl)c(Cl)c3)c(SC(C)C)s2)c1C(=O)O` [Compound 57, 1-(4-(3,4-dichlorophenyl)-5-(isopropylthio)thiazol-2-yl)-4-(3,5-dimethylisoxazol-4-yl)-3-methyl-1H-pyrazole-5-carboxylic acid]: 10 to 25 µM; for `Cc1nn(-c2nc(-c3cnn(C)c3)c(SC(C)C)s2)c(C(=O)O)c1-c1cc(Cl)cc(Cl)c1` [Compound 28, 4-(3,5-dichlorophenyl)-1-(5-(isopropylthio)-4-(1-methyl-1H-pyrazol-4-yl)thiazol-2-yl)-3-methyl-1H-pyrazole-5-carboxylic Acid]: > 25 µM.

For the compound `Cc1cc(-c2nc(-n3nc(C)c(-c4cccc(F)c4)c3C(=O)O)sc2SC(C)C)ccc1C#N` [Compound 226, 1-(4-(4-cyano-3-methylphenyl)-5-(isopropylthio)thiazol-2-yl)-4-(3-fluorophenyl)-3-methyl-1H-pyrazole-5-carboxylic acid], the EC50 lay within 5 to 10 µM. The same measure for `COc1cc(Cl)cc(-c2c(C)nn(-c3nc(-c4ccccc4)c(SC(C)C)s3)c2C(=O)O)c1` [Compound 185, 4-(3-chloro-5-methoxyphenyl)-1-(5-(isopropylthio)-4-phenylthiazol-2-yl)-3-methyl-1H-pyrazole-5-carboxylic Acid]: 10 to 25 µM; for `COc1cc(-c2c(C)nn(-c3nc(-c4ccc(Cl)c(Cl)c4)c(SC(C)C)s3)c2C(=O)O)cc(C(F)(F)F)c1` [Compound 146, 1-(4-(3,4-dichlorophenyl)-5-(isopropylthio)thiazol-2-yl)-4-(3-methoxy-5-(trifluoromethyl)phenyl)-3-methyl-1H-pyrazole-5-carboxylic Acid]: 1 to 5 µM. In the case of `COc1ccc(C)cc1-c1c(C)nn(-c2nc(-c3ccc(Cl)c(Cl)c3)c(SC(C)C)s2)c1C(=O)O` [Compound 62, 1-(4-(3,4-dichlorophenyl)-5-(isopropylthio)thiazol-2-yl)-4-(2-methoxy-5-methylphenyl)-3-methyl-1H-pyrazole-5-carboxylic acid], the EC50 lay within 5 to 10 µM. As for `Cc1nn(-c2nc(-c3ccc(S(C)(=O)=O)cc3)c(SC(C)C)s2)c(C(=O)O)c1-c1cccc(F)c1` [Compound 188, 4-(3-fluorophenyl)-1-(5-(isopropylthio)-4-(4-(methylsulfonyl)phenyl)thiazol-2-yl)-3-methyl-1H-pyrazole-5-carboxylic Acid], the EC50 was > 40 µM. The same measure for `Cc1nn(-c2nc(-c3ccc(C(F)(F)F)cc3)c(NC(C)C)s2)c(C(=O)O)c1-c1cccc(F)c1` [Compound 254, 4-(3-fluorophenyl)-1-(5-(isopropylamino)-4-(4-(trifluoromethyl)phenyl)thiazol-2-yl)-3-methyl-1H-pyrazole-5-carboxylic acid]: 5 to 10 µM; for `Cc1nn(-c2nc(-c3cccc(F)c3)c(SC(C)C)s2)c(C(=O)O)c1-c1cccc(F)c1` [Compound 201a]: 25 to 50 µM; for `Cc1nn(-c2nc(-c3ccc(Cl)c(Cl)c3)c(SC(C)C)s2)c(CO)c1-c1ccccc1` [Compound 88, (1-(4-(3,4-dichlorophenyl)-5-(isopropylthio)thiazol-2-yl)-3-methyl-4-phenyl-1H-pyrazol-5-yl)MeOH]: > 25 µM. With `CCC(C)Sc1sc(-n2nc(C)c(-c3cc(C)nc(C)c3)c2C(=O)OC)nc1-c1ccc(Cl)c(Cl)c1` (stereo not drawn) [Compound 33a] the figure was > 25 µM.
